Measured values from US12552770B2, “Compounds for treating respiratory disease” (TMEM16A Limited, priority 2020, dated 2026).

Molecular target: T1, human TMEM16A (TMEM16Aabc variant) (Homo sapiens, UniProt Q5XXA6, DEL476-501)
T1 sequence (Q5XXA6 with tags, fused parts or gaps isoform Q5XXA6-5 DEL539-564): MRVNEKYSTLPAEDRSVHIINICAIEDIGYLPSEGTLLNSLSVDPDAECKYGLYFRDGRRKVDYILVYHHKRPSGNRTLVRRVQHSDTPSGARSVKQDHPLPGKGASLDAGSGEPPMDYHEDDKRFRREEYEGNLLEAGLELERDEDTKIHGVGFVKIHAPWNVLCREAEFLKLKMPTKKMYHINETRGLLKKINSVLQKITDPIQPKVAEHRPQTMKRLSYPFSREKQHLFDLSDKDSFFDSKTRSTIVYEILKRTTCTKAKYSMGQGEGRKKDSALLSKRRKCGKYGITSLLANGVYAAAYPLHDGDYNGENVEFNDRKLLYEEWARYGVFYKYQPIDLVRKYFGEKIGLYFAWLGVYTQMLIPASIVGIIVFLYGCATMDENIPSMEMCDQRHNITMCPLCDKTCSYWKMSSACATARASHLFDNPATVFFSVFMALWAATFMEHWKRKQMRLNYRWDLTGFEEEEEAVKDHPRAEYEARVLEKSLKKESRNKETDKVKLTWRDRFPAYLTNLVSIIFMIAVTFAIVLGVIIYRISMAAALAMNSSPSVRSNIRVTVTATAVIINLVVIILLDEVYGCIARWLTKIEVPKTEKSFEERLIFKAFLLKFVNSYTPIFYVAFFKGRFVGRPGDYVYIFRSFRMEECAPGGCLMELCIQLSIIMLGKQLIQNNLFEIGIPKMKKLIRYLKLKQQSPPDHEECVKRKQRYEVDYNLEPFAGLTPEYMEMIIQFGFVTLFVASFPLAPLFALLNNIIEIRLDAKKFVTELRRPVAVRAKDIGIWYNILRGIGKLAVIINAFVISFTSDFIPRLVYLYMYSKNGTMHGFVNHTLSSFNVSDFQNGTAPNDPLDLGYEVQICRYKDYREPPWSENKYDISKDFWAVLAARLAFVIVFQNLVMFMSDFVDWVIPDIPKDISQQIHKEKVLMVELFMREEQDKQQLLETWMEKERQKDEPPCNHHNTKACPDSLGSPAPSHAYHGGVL
Assay: Automated whole-cell patch clamp (Qpatch) TMEM16A potentiator assay in recombinant cells
Format: cell-based
Conditions: FRT cells stably expressing human TMEM16A, intracellular calcium at EC20; for % Potentiation @ 3.33 μM Avg: 3.33 μM solution of test compound, percentage increase of baseline TMEM16A current, peak current at +70 mV; for EC50: calculated from cumulative concentration response curve, whole-cell patch clamp
Experimental: Automated Whole-Cell Patch Clamp Assay to Detect TMEM16A Activity in Recombinant Cells
Cell Culture and Preparation
Fisher rat thyroid (FRT) cells stably expressing human TMEM16A (TMEM16Aabc variant; Dr Luis Galietta, Insituto Giannina, Italy) were cultured in T-75 flasks in Hams F-12 media with Coon's modification (Sigma) supplemented with 10% (v/v) foetal bovine serum, penicillin-streptomycin (10,000 U/mL/10000 μg/mL), G-418 (750 μg/mL), L-glutamine (2 mM) and sodium bicarbonate solution (7.5% v/v). At ˜90% confluence cells were harvested for experiments by detachment with a 2:1 (v/v) mixture of Detachin (BMS Biotechnology) and 0.25% (w/v) trypsin-EDTA. Cells were diluted to a density of 3.5-4.5×10^6 cells/mL with media consisting of CHO-S-SFM II (Sigma), 25 mM HEPES (Sigma) and Soy bean trypsin inhibitor (Sigma).
Whole-Cell Patch Clamp Recording
FRT-TMEM16A cells were whole-cell patch clamped using an automated planar patch clamp system (Qpatch, Sophion). Briefly, once high resistance (GOhm) seals were established between the cells and the planar recording array the patch was ruptured using suction pulses to establish the whole-cell recording configuration of the patch clamp technique. The assay employed the following solutions (all reagents Sigma):
Intracellular solution (mM): N-methyl-D-glucamine 130, CaCl2 18.2, MgCl2 1, HEPES 10, EGTA 10, BAPTA 20, Mg-ATP 2, pH 7.25, 325 mOsm with sucrose.
Extracellular solution (mM): N-methyl-D-glucamine 130, CaCl2 2, MgCl2 1, HEPES 10, pH 7.3, 320 mOsm with sucrose.
The intracellular solution buffers intracellular calcium at levels required to give ˜20% activation of the maximal TMEM16A mediated current (EC20 for calcium ions). Cells were voltage clamped at a holding potential of −70 mV and a combined voltage step (to +70 mV)/ramp (−90 my to +90 mV) was applied at 0.05 Hz. After a period of current stabilisation test compounds, solubilised in 100% (v/v) DMSO and subsequently diluted into extracellular solution, were applied to generate a cumulative concentration response curve. Each concentration of test compound was incubated for 5 minutes before addition of the next concentration. After the final concentration was tested a supramaximal concentration of either a known active positive modulator or the TMEM16A inhibitor, CaCCinhA01 (Del La Fuente et al, 2008) was added to define the upper and lower limits of the assay.
Compound activity was quantified by measuring the increase in current upon compound addition and expressing this as a percentage increase of baseline TMEM16A current level. Percentage increases in current were determined for each concentration and the data plotted as a function of concentration using either the Qpatch software or Graphpad Prism v6.05 providing the concentration which gave 50% of its maximal effect (EC50) and maximum efficacy (percentage of baseline increase).
In FIG. 1, IBL equals baseline current, I[#1] equals the peak current during test compound concentration 1 incubation period and so on.
Peak TMEM16A current at +70 mV was plotted as a function of time over the assay period. Baseline current (IBL) was measured after a period of stabilisation. The increase in current for each compound addition was determined by taking the peak current during the incubation period and subtracting the current from the previous recording period and then expressing this as a percentage of the baseline current. For test compound concentration 1 in FIG. 1 this is:
For each additional concentration tested the increase in current was determined by subtracting the current from the previous incubation period and normalising the baseline value—for test concentration 2 in FIG. 1 this is:
The values for each test concentration were plotted as a cumulative function of concentration e.g. for test concentration two this would be the sum of the peak changes measured during concentration one plus concentration two.

| Structure (SMILES) | % Potentiation @ 3.33 μM Avg | EC50 |
| --- | --- | --- |
| O=C(NCC1CCCCCC1)c1ccc2[nH]c(Cc3ccc(F)cc3O)nc2c1 [Example 25.4, N-(Cycloheptylmethyl)-2-[(4-fluoro-2-hydroxy-phenyl)methyl]-1H-benzimidazole-5-carboxamide] | 120% | 130 nM |
| O=C(NCC1CCCCCC1)c1ccc2[nH]c(Cc3cccc(O)c3)nc2c1 [Example 25.5, N-(Cycloheptylmethyl)-2-[(3-hydroxyphenyl)methyl]-1H-benzimidazole-5-carboxamide] | 66% | 223 nM |
| CC(C)(C)Cc1nc2cc(NC(=O)Cc3cc(Cl)ccc3O)ccc2[nH]1 [Example 26, 2-(5-Chloro-2-hydroxy-phenyl)-N-[2-(2,2-dimethylpropyl)-1H-benzimidazol-5-yl]acetamide] | 69% | 98 nM |
| CC(C)(C)c1nc2cc(NC(=O)Cc3cc(Cl)ccc3O)ccc2[nH]1 [Example 27, N-(2-tert-Butyl-1H-benzimidazol-5-yl)-2-(5-chloro-2-hydroxy-phenyl)acetamide] | 96% | 156 nM |
| CC1(c2nc3ccc(C(=O)NCC4CCCCCC4)cc3[nH]2)CCC1 [Example 28, N-(Cycloheptylmethyl)-2-(1-methylcyclobutyl)-3H-benzimidazole-5-carboxamide] | 82% | 610 nM |
| CC(C)(CO)c1cc(F)c(Cc2nc3cc(C(=O)NCC4(C(F)(F)F)CC4)ccc3[nH]2)cc1O [Example 29, 2-[[2-Fluoro-5-hydroxy-4-(2-hydroxy-1,1-dimethyl-ethyl)phenyl]methyl]-N-[[1-(trifluoromethyl)cyclopropyl]methyl]-1H-benzimidazole-5-carboxamide] | 183% | 496 nM |
| CC(C)(CO)c1cc(F)c(CNC(=O)c2ccc3[nH]c(C4(C(F)(F)F)CC4)nc3c2)cc1O [Example 30, N-[[2-Fluoro-5-hydroxy-4-(2-hydroxy-1,1-dimethyl-ethyl)phenyl]methyl]-2-[1-(trifluoromethyl)cyclopropyl]-1H-benzimidazole-5-carboxamide] | 66% | – |
| CC(C)(O)c1cc(F)c(Cc2nc3cc(C(=O)NCCC(F)(F)F)ccc3[nH]2)cc1O [Example 31, 2-[[2-Fluoro-5-hydroxy-4-(1-hydroxy-1-methyl-ethyl)phenyl]methyl]-N-(3,3,3-trifluoropropyl)-1H-benzimidazole-5-carboxamide] | 158% | – |
| CC(C)(O)c1cc(F)c(Cc2nc3cc(C(=O)NC4(C(F)(F)F)CC4)ccc3[nH]2)cc1O [Example 31.1, 2-[[2-Fluoro-5-hydroxy-4-(1-hydroxy-1-methyl-ethyl)phenyl]methyl]-N-[1-(trifluoromethyl)cyclopropyl]-1H-benzimidazole-5-carboxamide] | 108% | – |
| CC(C)(CO)c1cc(F)cc(Cc2nc3cc(C(=O)NCC4(C(F)(F)F)CC4)ccc3[nH]2)c1O [Example 32, 2-[[5-Fluoro-2-hydroxy-3-(2-hydroxy-1,1-dimethyl-ethyl)phenyl]methyl]-N-[[1-(trifluoromethyl)cyclopropyl]methyl]-1H-benzimidazole-5-carboxamide] | 56.6% | 227 nM |
